# Literature values, collected in US20090012088A1 (priority 2005, published 2009).
# What was measured:
# 34I cells = conditions: cited from earlier work
# PARG [1] = molecular target: T1, PARG (Homo sapiens, UniProt Q86W56); conditions: cited from earlier work
# [2] = test system: rat model of focal cerebral ischemia; conditions: cited from earlier work
# PARG [3] = molecular target: T1, PARG; conditions: tannins; read-out: in vitro IC50 for PARG; cited from earlier work
# [4] = test system: human neuroblastoma cells; conditions: cited from earlier work
# PARG [5] = molecular target: PARG (Bos taurus, UniProt O02776); conditions: cited from earlier work
# PARG (Bos taurus, UniProt O02776), sequence (O02776 whole entry): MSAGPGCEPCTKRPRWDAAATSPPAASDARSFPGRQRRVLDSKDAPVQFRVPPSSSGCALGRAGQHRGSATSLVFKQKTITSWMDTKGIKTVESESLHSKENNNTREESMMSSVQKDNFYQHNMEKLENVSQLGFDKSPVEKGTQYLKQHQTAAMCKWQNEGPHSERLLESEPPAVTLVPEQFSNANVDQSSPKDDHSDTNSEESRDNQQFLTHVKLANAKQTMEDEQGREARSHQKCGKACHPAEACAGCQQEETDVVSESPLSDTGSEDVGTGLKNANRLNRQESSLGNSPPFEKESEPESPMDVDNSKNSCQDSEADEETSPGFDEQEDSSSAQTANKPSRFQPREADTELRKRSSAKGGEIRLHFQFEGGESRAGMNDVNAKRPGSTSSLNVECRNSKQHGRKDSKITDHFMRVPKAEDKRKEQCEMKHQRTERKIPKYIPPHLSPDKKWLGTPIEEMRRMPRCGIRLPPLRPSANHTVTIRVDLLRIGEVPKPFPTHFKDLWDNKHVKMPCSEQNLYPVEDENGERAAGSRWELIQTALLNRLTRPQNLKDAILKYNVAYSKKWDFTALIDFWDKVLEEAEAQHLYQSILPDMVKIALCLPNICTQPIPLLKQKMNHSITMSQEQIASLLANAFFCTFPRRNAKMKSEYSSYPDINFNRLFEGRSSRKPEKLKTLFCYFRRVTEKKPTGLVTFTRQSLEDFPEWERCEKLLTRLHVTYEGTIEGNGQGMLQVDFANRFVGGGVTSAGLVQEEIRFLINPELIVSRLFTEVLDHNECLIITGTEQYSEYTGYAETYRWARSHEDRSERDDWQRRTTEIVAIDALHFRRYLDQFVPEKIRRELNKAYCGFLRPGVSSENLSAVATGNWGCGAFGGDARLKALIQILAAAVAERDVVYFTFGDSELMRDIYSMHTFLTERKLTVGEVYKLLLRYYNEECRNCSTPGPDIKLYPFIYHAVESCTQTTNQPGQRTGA
# T1 sequence (Q86W56 whole entry, species assumed): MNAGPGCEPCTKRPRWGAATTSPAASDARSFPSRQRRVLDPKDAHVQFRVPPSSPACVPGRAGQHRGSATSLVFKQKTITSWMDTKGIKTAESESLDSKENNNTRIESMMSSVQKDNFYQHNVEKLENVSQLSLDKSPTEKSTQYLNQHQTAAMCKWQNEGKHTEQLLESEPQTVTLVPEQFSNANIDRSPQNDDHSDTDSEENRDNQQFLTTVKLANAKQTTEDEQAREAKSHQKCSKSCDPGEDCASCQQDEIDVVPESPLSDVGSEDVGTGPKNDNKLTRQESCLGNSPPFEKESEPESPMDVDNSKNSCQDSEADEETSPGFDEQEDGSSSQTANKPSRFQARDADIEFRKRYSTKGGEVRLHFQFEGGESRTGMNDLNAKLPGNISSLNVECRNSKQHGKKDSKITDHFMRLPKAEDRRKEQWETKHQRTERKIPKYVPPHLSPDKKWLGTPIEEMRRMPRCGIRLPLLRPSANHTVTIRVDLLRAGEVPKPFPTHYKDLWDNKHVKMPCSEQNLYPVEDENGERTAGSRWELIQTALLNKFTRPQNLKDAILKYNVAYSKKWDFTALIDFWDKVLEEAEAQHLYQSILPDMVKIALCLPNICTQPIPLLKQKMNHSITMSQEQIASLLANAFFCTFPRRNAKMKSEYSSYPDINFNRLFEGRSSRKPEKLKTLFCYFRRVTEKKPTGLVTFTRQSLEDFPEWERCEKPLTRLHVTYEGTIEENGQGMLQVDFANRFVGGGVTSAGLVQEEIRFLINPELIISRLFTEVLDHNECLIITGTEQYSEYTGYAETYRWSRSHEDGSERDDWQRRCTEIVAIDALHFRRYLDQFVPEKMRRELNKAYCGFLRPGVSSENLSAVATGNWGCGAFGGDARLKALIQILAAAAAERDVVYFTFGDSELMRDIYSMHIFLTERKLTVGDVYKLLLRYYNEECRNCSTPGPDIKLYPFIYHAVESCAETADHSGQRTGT
compound,measurement,setting,value
O=C(OC[C@H]1O[C@@H](OC(=O)c2cc(O)c(O)c(O)c2)[C@@H]2OC(=O)c3cc(O)c(O)c(O)c3-c3c(cc(O)c(O)c3O)C(=O)O[C@H]2[C@@H]1OC(=O)c1cc(O)c(O)c(O)c1Oc1cc2c(c(O)c1O)-c1c(cc(O)c(O)c1O)C(=O)O[C@H]1[C@@H]3OC(=O)c4cc(Oc5c(C(=O)O[C@H]6[C@@H]7OC(=O)c8cc(O)c(O)c(O)c8-c8c(cc(O)c(O)c8O)C(=O)O[C@H]7[C@H](OC(=O)c7cc(O)c(O)c(O)c7)O[C@@H]6COC(=O)c6cc(O)c(O)c(O)c6)cc(O)c(O)c5O)c(O)c(O)c4-c4c(cc(O)c(O)c4O)C(=O)O[C@H]3[C@H](OC(=O)c3cc(O)c(O)c(O)c3)O[C@@H]1COC2=O)c1cc(O)c(O)c(O)c1 [nobotanin E],Inhibition of PAR catabolism in intact cells,34I cells,little inhibitory effect
"CCC(C)CC1CCC(O)(C(C)(O)C(=O)NC2C(=O)N3NCCCC3C(=O)N(O)C(C)C(=O)NCC(=O)N3NCCCC3C(=O)N(O)C(C)C(=O)OC2C(C)C)OC1C (stereo not shown) [PD 124,966]",IC50 for PARG,PARG [1],40 µg/mL
"O=C(NCCCc1ccccc1)c1ccc2c(c1)C(=O)c1cc(C(=O)NCCCc3ccccc3)ccc1-2 [GPI 16552, 2,7-Bis[N-(3-phenyl-propyl)carbamoyl]-9-Oxo-9H-fluorene]",Reduction of total infarct volume,[2]; 30-minute pre-ischemia or 1- or 2-hour post-ischemia treatment,47-53%
same,Protection in cortical areas,"[2]; rat, in vivo",43-59%
same,Protection in subcortical areas,"[2]; rat, in vivo",28-40%
nobotanin B,IC50,PARG [3],4.8 µM
same,Inhibition of PAR catabolism in intact cells,34I cells,concentration-dependent inhibition of PAR catabolism
C=CCN1CCc2nc(N)sc2CC1 [talipexole],Concentration required for protection,[4],1 mM
O=C(OCC1OC(OC(=O)c2cc(O)c(O)c(O)c2)C2OC(=O)c3cc(O)c(O)c(O)c3-c3c(cc(O)c(O)c3O)C(=O)OC2C1OC(=O)c1cc(O)c(O)c(O)c1Oc1cc2c(c(O)c1O)-c1c(cc(O)c(O)c1O)C(=O)OC1C(COC2=O)OC(OC(=O)c2cc(O)c(O)c(O)c2)C2OC(=O)c3cc(O)c(O)c(O)c3-c3c(cc(Oc4c(C(=O)OC5C(COC(=O)c6cc(O)c(O)c(O)c6)OC(OC(=O)c6cc(O)c(O)c(O)c6)C6OC(=O)c7cc(O)c(O)c(O)c7-c7c(cc(Oc8c(C(=O)OC9OC%10COC(=O)c%11cc(O)c(O)c(O)c%11-c%11c(cc(O)c(O)c%11O)C(=O)OC%10C%10OC(=O)c%11cc(O)c(O)c(O)c%11-c%11c(cc(O)c(O)c%11O)C(=O)OC9%10)cc(O)c(O)c8O)c(O)c7O)C(=O)OC56)cc(O)c(O)c4O)c(O)c3O)C(=O)OC12)c1cc(O)c(O)c(O)c1 (stereo not shown) [nobotanin K],IC50,PARG [3],0.44 µM
same,Inhibition of PAR catabolism in intact cells,34I cells,little inhibitory effect
adenosine diphosphate (hydroxymethyl)pyrrolidinediol [ADP-HPD],IC50 lower than that of ADP-ribose,PARG [5],1000 fold
pargamicin,IC50 for PARG,PARG [1],28 µg/mL
Nc1ncnc2c1ncn2[C@@H]1O[C@H](COP(=O)(O)OP(=O)(O)OC[C@H]2OC(O)[C@H](O)[C@@H]2O)[C@@H](O)[C@H]1O (stereo partly shown) [ADP-ribose],IC50,"PARG [5]; substrate analogues, FIG. 9",120 µM
